How the values were obtained:
[1] = test system: acute lymphoblastic leukemia cell line CCRF-CEM; assay: Fluorometric Microculture Cytotoxicity Assay (FMCA) in CCRF-CEM cells; assay type: cell-based; conditions: Homo sapiens, FMCA after 72 h
Text: (§1) The Fluorometric Microculture Cytotoxicity Assay, FMCA (Larsson, R., et al.; Anticancer Res, 1989, 9, 1111-1119), is a three day non-clonogenic microplate-based cell viability assay used for measurement of the cytotoxic and/or cytostatic effect of compounds in vitro (Lindhagen, E. et al.; Nat. Protoc., 2008, 3, 1364-1369). FMCA represents a valuable method to measure cytotoxicity in a number of cell types, both cell lines and primary cells from patients (Larsson, R., et al.; Int. J. Cancer, 1992, 50, 177-185; Fridborg, H., et al.; Eur. J. Cancer, 1999. 35, 424-432; Dhar, S., et al.; Br. J. Cancer, 1996, 74, 888-896).
(§2) FMCA is based on the principle that fluorescein diacetate (FDA) is converted to the fluorescent probe fluorescein by esterases […]. For experiments, 96-well microplates are prepared with compounds and stored at −20° C. or −70° C. until use. Cells are then seeded into the drug-prepared plates and placed in an incubator for 72 h. On the last day of incubation, the plates are washed and a buffer containing FDA is added and incubated with the cells for 45 minutes. Finally the fluorescence per well is measured in a fluorometer and a Survival Index % (SI) for each compound-treated well is calculated with the equation: Compound-treated cells minus blank divided by control cells minus blank. A high SI-value indicates a large percentage of living cells and vice versa.
For experiments with compounds of the invention, 96-well plates were prepared as follows:
Compounds were dissolved in DMSO to 10 mM and stored at −20° C. The test compounds were thawed, protected from light, mixed, and 3 μl stock solution was added to test tubes containing 297 μl culture medium RPMI-1640, to give the concentration 100 μM. Then, compounds were serially diluted to concentrations ten times higher than the desired test concentrations. Finally, 20 μl of each compound solution was added in duplicates to wells in two V-bottomed 96-well plates. The plates were stored at −20° C. until use.
On the day of cell seeding, 180 μl of cell suspension was added to each well in the two assay plates. The final concentrations of compounds tested were 10 μM, 1 μM, 0.1 μM and 0.01 μM. The experiment was performed twice.
In subsequent experiments, compounds were tested, along with a number of approved cancer drugs (dasatinib and pazopanib) as described above. The acute lymphoblastic leukemia cell line CCRF-CEM was used throughout. In the assay plates, medium was added to eight empty wells (blank wells) and wells filled with cell suspension served as control wells. SI-values were then calculated for each compound-treated well as described above. All experiments were conducted twice and a new batch of plates was prepared for each experiment.
(§3) To obtain EC50-values, plates were prepared with compounds serially diluted in culture media to suitable concentration ranges for each compound. Thereafter cells were added at a density of 10 000 cells per well and FMCA was performed after 72 h. Data analysis was performed using GraphPadPrism software, where SI values for each concentration were plotted on a log scale and processed with non-linear regression and a standard sigmoidal dose-response model.

[2] = test system: A2780 (ovarian cancer); assay: FMCA cell viability in ovarian cancer cell line A2780; assay type: cell-based; conditions: Homo sapiens; A2780 ovarian cancer cells
Text: as §1, §2, §3
(§4) The compounds of the invention were also tested on further cancer cell lines related to ovarian cancer (A2780; see e.g. Hamilton, T. et al.; Semin. Oncol., 1984, 11, 285-298) and multidrug-resistant ovarian cancer (A2780/Adr). The known microtubule interfering agents vincristine and paclitaxel were included as references in the resistant and non-resistant ovarian cancer cell lines.

[3] = test system: A2780/Adr (multidrug-resistant ovarian cancer); assay: FMCA cell viability in multidrug-resistant ovarian cancer cell line A2780/Adr; assay type: cell-based; conditions: A2780/Adr multidrug-resistant ovarian cancer cells
Text: as §1, §2, §3, §4

[4] = test system: bovine tubulin protein; assay: Tubulin polymerization assay kit (Cytoskeleton Inc), fluorescence; assay type: biochemical; conditions: for inhibitory effects on tubulin polymerization (in words): cell-free, 1, 3 and 10 μM; for IC50: cell-free, example compounds at 1, 3 and 10 μM, controls at 3 μM, 60 min, read-out: Inhibition of tubulin polymerization IC50
Description: Example compounds were further tested in a tubulin polymerization assay kit from Cytoskeleton Inc (Denver, Colo., USA). Polymerization is followed by fluorescence enhancement due to the incorporation of a fluorescent reporter into microtubules as polymerization occurs. Vincristine and paclitaxel at 3 μM were used as positive controls for tubulin polymerization inhibition and stabilisation, respectively. All compounds were dissolved in DMSO, which was used as solvent control. For experiments, example compounds (1, 3, and 10 μM) and control compounds (3 μM) were incubated with bovine tubulin protein in a cell-free environment and the fluorescence was then measured in a fluorometer (Fluostar Optima, BMG Labtech, Offenburg, Germany) at 360/450 nm every minute for a total of 60 mins.

[5] = test system: colchicine site on tubulin (porcine brain tubulin); assay: Colchicine displacement assay, fluorometric detection; assay type: binding; conditions: compound 20 μM, colchicine 2 μM, porcine brain tubulin 2 μM, 2 h; control = colchicine bound to tubulin
Description: To study whether the compounds bind to the colchicine site on tubulin, a colchicine displacement assay using fluorometric detection was performed as previously described (Bhattacharyya B. et al.; Proc Natl Acad Sci USA 1974, 71:2627-31; Risinger A L. et al.; J Pharmacol Exp Ther 2011; 336:652-60). Porcine brain tubulin at 2 μM (Cytoskeleton) in a buffer consisting of 80 mM PIPES, 2 mM MgCl2, 0.5 mM EGTA at pH 7.0 with addition of 1 mM GTP, was incubated alone, with 2 μM colchicine or with 2 μM colchicine in the presence of test compounds or reference compound combretastatin A4 at 20 μM for 2 h in a black half-area 96-well plate (Corning Inc, Corning, N.Y., USA). Thereafter, the fluorescence was measured using a FLUOStar Optima (BMG Labtech) at an excitation of 380 nm and emission of 440 nm. The results are presented as percent of control i.e. colchicine bound to tubulin.

| EC50 [2] [nM] | EC50 [3] [nM] | IC50 [4] [nM] | Colchicine-tubulin binding Percent of control [5] | SMILES | EC50 [1] [nM] | inhibitory effects on tubulin polymerization (in words) [4] |
| --- | --- | --- | --- | --- | --- | --- |
| 48 | 130 | ~3000 | 82% of control | CCOc1ccc2[nH]cc(CCNc3nc(C)cc(Nc4cccc5c4ccn5C)n3)c2c1 [Example 8, N^2-[2-(5-ethoxy-1H-indol-3-yl)ethyl]-6-methyl-N^4-(1-methylindol-4-yl)pyrimidine-2,4-diamine] | 110 | showed inhibitory effects on tubulin polymerization |
| 3.3 | 17 | 1000 to 3000 | 81% of control | COc1ccc2[nH]cc(CCNc3nccc(Nc4cccc5c4ncn5C)n3)c2c1 [Example 2, N^2-[2-(5-methoxy-1H-indol-3-yl)ethyl]-N^4-(1-methylbenzimidazol-4-yl)pyrimidine-2,4-diamine] | 9.7 | showed inhibitory effects on tubulin polymerization |
| 0.26 | 810 | – | – | CC(=O)O[C@H]1C(=O)[C@@]2(C)[C@H]([C@H](OC(=O)c3ccccc3)[C@]3(O)C[C@H](OC(=O)[C@H](O)[C@@H](NC(=O)c4ccccc4)c4ccccc4)C(C)=C1C3(C)C)[C@]1(OC(C)=O)CO[C@@H]1C[C@@H]2O [Paclitaxel, paclitaxel, reference compound] | – | – |
| 9.2 | 24 | – | – | CCOc1ccc2[nH]cc(CCNc3nccc(Nc4cccc5c4ncn5C)n3)c2c1 [Example 3, N^2-[2-(5-ethoxy-1H-indol-3-yl)ethyl]-N^4-(1-methylbenzimidazol-4-yl)pyrimidine-2,4-diamine] | 5.6 | – |
| 0.22 | 210 | < 3000 | – | CC[C@]1(O)C[C@H]2CN(CCc3c([nH]c4ccccc34)[C@@](C(=O)OC)(c3cc4c(cc3OC)N(C=O)[C@H]3[C@@](O)(C(=O)OC)[C@H](OC(C)=O)[C@]5(CC)C=CCN6CC[C@]43[C@@H]65)C2)C1 [Vincristine, vincristine, reference compound] | – | – |
| – | – | – | – | Cc1nc(Nc2ncc(C(=O)Nc3c(C)cccc3Cl)s2)cc(N2CCN(CCO)CC2)n1 [Ref. 1, dasatinib, reference compound] | 9700 | – |
| 950 | 930 | > 10000 | – | CCOc1ccc2[nH]cc(CCNc3nc(C)cc(Nc4ccc5[nH]ccc5c4)n3)c2c1 [Example 4, N^2-[2-(5-ethoxy-1H-indol-3-yl)ethyl]-N^4-(1H-indol-5-yl)-6-methyl-pyrimidine-2,4-diamine] | 800 | – |
| 17 | 380 | 1000 to 3000 | 95% of control | CCOc1ccc2[nH]cc(CCNc3nccc(Nc4ccc5c(c4)nc(C)n5C)n3)c2c1 [Example 1, N^4-(1 2-dimethyl-1H-benzo[d]imidazol-5-yl)-N^2-[2-(5-ethoxy-1H-indol-3-yl)ethyl]pyrimidine-2,4-diamine] | 12 | showed inhibitory effects on tubulin polymerization |
| – | – | – | – | Cc1ccc(Nc2nccc(N(C)c3ccc4c(C)n(C)nc4c3)n2)cc1S(N)(=O)=O [Ref. 2, pazopanib, reference compound] | 25900 | – |
| 170 | 450 | – | – | CCOc1ccc2[nH]cc(CCNc3nc(C)cc(Nc4ccc5cc(C)[nH]c5c4)n3)c2c1 [Example 6] | 69 | – |
| 12 | 53 | – | – | COc1ccc2[nH]cc(CCNc3nc(C)cc(Nc4cccc5c4ccn5C)n3)c2c1 [Example 7, N^2-[2-(5-methoxy-1H-indol-3-yl)ethyl]-6-methyl-N^4-(1-methylindol-4-yl)pyrimidine-2,4-diamine] | 32 | – |
| 130 | 400 | 3000 to 10000 | – | COc1ccc2[nH]cc(CCNc3nc(C)cc(Nc4ccc5cc(C)[nH]c5c4)n3)c2c1 [Example 5, N^2-[2-(5-methoxy-1H-indol-3-yl)ethyl]-6-methyl-N^4-(2-methyl-1H-indol-6-yl)pyrimidine-2,4-diamine] | 100 | showed inhibitory effects on tubulin polymerization |

| SMILES | EC50 [2] [nM] | EC50 [3] [nM] | IC50 [4] [nM] | Colchicine-tubulin binding Percent of control [5] | EC50 [1] [nM] | inhibitory effects on tubulin polymerization (in words) [4] |
| --- | --- | --- | --- | --- | --- | --- |
| COc1ccc(/C=C\c2cc(OC)c(OC)c(OC)c2)cc1O [Combretastatin A4, combretastatin A4, reference compound] | – | – | – | 66% of control | – | – |

From patent US20150252026A1, “4-(INDOLYL OR BENZIMIDAZOLYL)AMINO-2-(2-(INDOL-3-YL)ETHYL)AMINOPYRIMIDINES USEFUL FOR THE TREATMENT OF CANCER” (NOVIGA RESEARCH AB, priority 2012, published 2015)
